According to patent US9957246B2, “Prodrugs of tetrahydrocannabinol, compositions comprising prodrugs of tetrahydrocannabinol and methods of using the same” (Zynerba Pharmaceuticals, Inc., priority 2007, dated 2018):
Where a name gives a salt, the structure may show the parent alone.

How the values were obtained:
[1] = Plasma stability of prodrugs (bioconversion to parent drug); type: in vitro ADME
Method: Approximately 1 mg/mL of stock solution of each prodrug was prepared in 100 μL of ethanol and 900 μL of acetonitrile. Next, 10 μL of stock was spiked into 1 mL of plasma and vortexed. The samples were kept sealed in an amber vial and samples were obtained to analyze for bioconversion to parent drug.
An approximated 1 mg/mL stock solution of each prodrug was prepared in 100 μL of ethanol and 900 μL of acetonitrile. Next, 10 μL of stock was spiked into 1 mL of plasma and vortexed. The samples were kept sealed in an amber vial and samples were obtained to analyze for bioconversion to parent drug.
Approximately 1 mg/mL of stock solution of each prodrug was prepared in 100 μL of ethanol and 900 μL of acetonitrile. Ten μL of stock was spiked into 1 mL of plasma and vortexed. The samples were kept sealed in an amber vial and samples were obtained to analyze for bioconversion to parent drug.

[2] = In vitro human skin permeation, flow-through diffusion cells; conditions: analyte: THC or intact prodrug as applied
[3] = Table 7, 2.36:1.18:1 PG:ethanol:H2O donor solution
[4] = Table 9, 2.36:1.18:1 pH = 5.5 PG:ethanol:H2O donor solution
[5] = Table 10, 2.36:1.18:1 pH = 5.5 PG:ethanol:H2O donor solution
[6] = Table 17, 90:8:2 PG:H2O:IPM donor solution
[7] = Table 18, 90:8:2 PG:H2O:IPM donor solution
[8] = Table 19, 90:8:2 PG:H2O:IPM donor solution
[9] = Table 13, gel formulation with 40% aqueous PEG 400 receiver fluid

CCCCCc1cc(OC(=O)CN(C)C=O)c2c(c1)OC(C)(C)[C@@H]1CCC(C)=C[C@@H]21 [ALL00121, Δ^9-Tetrahydrocannabinol N-formylsarcosyl ester]
% Prodrug at time (h) ([1]; Table 11, 0.1 h): 100% | % Prodrug at time (h) ([1]; Table 11, 1 h): 50% | % Prodrug at time (h) ([1]; Table 11, 22 h): 10% | % Prodrug at time (h) ([1]; Table 11, 24 h): 14% | % Prodrug at time (h) ([1]; Table 11, 42 h): 0% | 24 h cumulative amt [2, 3]: 18.5 ± 5.6 nmol | 24 h skin conc [2, 3]: 72.3 ± 54.0 µmol/g | Flux [2, 3]: 1.2 ± 0.3 nmol/cm^2/h | Lag time [2, 3]: 8.3 ± 0.5 h | 24 h cumulative amt ([2]; Table 8, gel formulation): 8.8 ± 0.1 nmol | 24 h skin conc ([2]; Table 8, gel formulation): 33.2 ± 7.2 µmol/g | Flux ([2]; Table 8, gel formulation): 0.38 ± 0.03 nmol/cm^2/h | Lag time ([2]; Table 8, gel formulation): 1.4 ± 0.0 h

CCCCCc1cc(OC(=O)C(=O)OCCOCCOCCOCCOC)c2c(c1)OC(C)(C)[C@@H]1CCC(C)=C[C@@H]21 [ALL00122, Δ^9-Tetrahydrocannabinol 3,6,9,12-tetraoxatridecyl oxalate]
% Prodrug at time (h) ([1]; Table 11, 0.1 h): 0% | % Prodrug at time (h) ([1]; Table 11, 1 h): 0% | % Prodrug at time (h) ([1]; Table 11, 22 h): 0% | % Prodrug at time (h) ([1]; Table 11, 24 h): 0% | % Prodrug at time (h) ([1]; Table 11, 42 h): 0% | 24 h skin conc [2, 4]: 52.7 ± 3.2 µmol/g

CCCCCc1cc(OC(=O)CCC(=O)O)c2c(c1)OC(C)(C)[C@@H]1CCC(C)=C[C@@H]21 [ALL00123, Δ^9-Tetrahydrocannabinol hemisuccinate]
% Prodrug at time (h) ([1]; Table 11, 0.1 h): 0% | % Prodrug at time (h) ([1]; Table 11, 1 h): 0% | % Prodrug at time (h) ([1]; Table 11, 22 h): 0% | % Prodrug at time (h) ([1]; Table 11, 24 h): 0% | % Prodrug at time (h) ([1]; Table 11, 42 h): 0% | 24 h cumulative amt ([2]; Table 8, gel formulation): 2.3 ± 1.5 nmol | 24 h skin conc ([2]; Table 8, gel formulation): 110.4 ± 22.2 µmol/g | Flux ([2]; Table 8, gel formulation): 0.15 ± 0.07 nmol/cm^2/h

CCCCCc1cc(OC(=O)NCCCCN)c2c(c1)OC(C)(C)[C@@H]1CCC(C)=C[C@@H]21 [ALL00124, Δ^9-Tetrahydrocannabinol 4-aminobutyl carbamate]
% Prodrug at time (h) ([1]; Table 11, 0.1 h): 97% | % Prodrug at time (h) ([1]; Table 11, 1 h): 97% | % Prodrug at time (h) ([1]; Table 11, 2 h): 97% | % Prodrug at time (h) ([1]; Table 11, 3 h): 96% | % Prodrug at time (h) ([1]; Table 11, 5 h): 94% | % Prodrug at time (h) ([1]; Table 11, 24 h): 71% | 24 h cumulative amt [2, 4]: 138.7 ± 101.2 nmol | 24 h skin conc [2, 4]: 17.3 ± 0.4 µmol/g | Flux [2, 4]: 9.4 ± 5.9 nmol/cm^2/h | Lag time [2, 4]: 9.1 ± 2.0 h | 24 h cumulative amt [2, 5]: 245.2 ± 54.1 nmol | 24 h skin conc [2, 5]: 4.3 ± 0.3 µmol/g | Flux [2, 5]: 16.1 ± 0.1 nmol/cm^2/h | Lag time [2, 5]: 1.4 ± 0.0 h

CCCCCc1cc(OC(=O)OC[C@H](O)CO)c2c(c1)OC(C)(C)[C@@H]1CCC(C)=C[C@@H]21 [ALL00126, Δ^9-Tetrahydrocannabinol (R)-2,3-dihydroxypropyl carbonate]
% Prodrug at time (h) ([1]; Table 15, 0.1 h): 100% | % Prodrug at time (h) ([1]; Table 15, 1 h): 3% | % Prodrug at time (h) ([1]; Table 15, 2.5 h): 1% | % Prodrug at time (h) ([1]; Table 15, 3.5 h): 1% | 24 h cumulative amt [2, 6]: 69.7 ± 10.7 nmol | 24 h skin conc [2, 6]: 17.8 ± 4.8 µmol/g | Flux [2, 6]: 5.7 ± 0.0 nmol/cm^2/h | Lag time [2, 6]: 10.8 ± 2.1 h

CCCCCc1cc(OC(=O)C(C)(CO)CO)c2c(c1)OC(C)(C)[C@@H]1CCC(C)=C[C@@H]21 [ALL00129, Δ^9-Tetrahydrocannabinol 3-hydroxy-2-(hydroxymethyl)-2-methylpropanoate]
% Prodrug at time (h) ([1]; Table 15, 0.1 h): 100% | % Prodrug at time (h) ([1]; Table 15, 1 h): 100% | % Prodrug at time (h) ([1]; Table 15, 3 h): 98% | % Prodrug at time (h) ([1]; Table 15, 24 h): 83% | 24 h cumulative amt [2, 7]: 74.2 ± 8.1 nmol | 24 h skin conc [2, 7]: 19.6 ± 12.6 µmol/g | Flux [2, 7]: 4.8 ± 0.7 nmol/cm^2/h | Lag time [2, 7]: 7.8 ± 1.3 h

CCCCCc1cc(OC(=O)[C@@H](O)CO)c2c(c1)OC(C)(C)[C@@H]1CCC(C)=C[C@@H]21 [ALL00134, A9-Tetrahydrocannabinol (S)-2,3-dihydroxypropanoate]
% Prodrug at time (h) ([1]; Table 15, 0.1 h): 96% | % Prodrug at time (h) ([1]; Table 15, 0.5 h): 61% | % Prodrug at time (h) ([1]; Table 15, 2 h): 15% | % Prodrug at time (h) ([1]; Table 15, 5 h): 0.8% | % Prodrug at time (h) ([1]; Table 15, 24 h): 0% | 24 h cumulative amt [2, 8]: 128.6 ± 5.1 nmol | 24 h skin conc [2, 8]: 24.5 ± 12.3 µmol/g | Flux [2, 8]: 8.0 ± 0.3 nmol/cm^2/h | Lag time [2, 8]: 7.0 ± 0.1 h

CCCCCc1cc(OC(=O)OC[C@@H](O)CO)c2c(c1)OC(C)(C)[C@@H]1CCC(C)=C[C@@H]21 [ALL00138, Δ^9-Tetrahydrocannabinol (S)-2,3-dihydroxypropyl carbonate]
% Prodrug at time (h) ([1]; Table 15, 0.1 h): 30% | % Prodrug at time (h) ([1]; Table 15, 0.5 h): 0% | 24 h cumulative amt [2, 7]: 18.2 ± 1.4 nmol | 24 h skin conc [2, 7]: 7.2 ± 4.8 µmol/g | Flux [2, 7]: 1.0 ± 0.0 nmol/cm^2/h | Lag time [2, 7]: 5.9 ± 1.4 h

CCCCCc1cc(OC(=O)CCN(C)C)c2c(c1)OC(C)(C)[C@@H]1CCC(C)=C[C@@H]21 [ALL00153, Δ^9-Tetrahydrocannabinol 3-(dimethylamino)propionate]
% Prodrug at time (h) ([1]; Table 14, 0 h): 98% | % Prodrug at time (h) ([1]; Table 14, 1 h): 72% | % Prodrug at time (h) ([1]; Table 14, 21 h): 48% | % Prodrug at time (h) ([1]; Table 14, 24 h): 41% | 24 h skin conc [2, 9]: 1.6 ± 0.03 µmol/g | 24 h skin conc ([2]; Table 20, 90:8:2 PG:H2O:IPM donor solution (saturated)): 0.6 ± 0.1 µmol/g

CCCCCc1cc(OC(=O)CO)c2c(c1)OC(C)(C)[C@@H]1CCC(C)=C[C@@H]21 [ALL00154, Δ^9-Tetrahydrocannabinol glycolate]
% Prodrug at time (h) ([1]; Table 14, 0 h): 95% | % Prodrug at time (h) ([1]; Table 14, 1 h): 0% | % Prodrug at time (h) ([1]; Table 14, 21 h): 0% | % Prodrug at time (h) ([1]; Table 14, 24 h): 0% | 24 h cumulative amt [2, 9]: 39.2 nmol | 24 h skin conc [2, 9]: 2.6 ± 1.5 µmol/g | Flux [2, 9]: 3.23 nmol/cm^2/h | Lag time [2, 9]: 12.2 h
